Measured values reported in patent US20100267561A1, “HERBICIDAL PYRIDAZINONE DERIVATIVES” (priority 2007, published 2010).

Columns and labels:
Test in all cases: Test B pre-/postemergence plant response
Type in all cases: in vivo
[1] = system: blackgrass (Alopecurus myosuroides); conditions: for Blackgrass plant response rating: 8 g ai/ha
How it was run: (§1)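 Preemergence and postemergence (plants 2-18 cm, 1- to 4-leaf stage) applications used test chemicals in a non-phytotoxic solvent with surfactant. Plants were held in a greenhouse 13 to 15 days, then rated visually against controls on a 0-100 scale (0 no effect, 100 complete control).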

[2] = system: catchweed bedstraw (Galium aparine); conditions: Preemergence, scale 0 to 100
How it was run: as §1

[3] = system: common ragweed (Ambrosia elation)
How it was run: as §1

corn (Zea mays) = system: corn (Zea mays)
How it was run: as §1

[4] = system: downy bromegrass (Bromus tectorum); conditions: for Bromegrass, Downy plant response rating: 8 g ai/ha
How it was run: as §1

[5] = system: giant foxtail (Setaria faberii)
How it was run: as §1

[6] = system: goosegrass (Eleusine indica)
How it was run: as §1

[7] = system: green foxtail (Setaria viridis)
How it was run: as §1

[8] = system: lambsquarters (Chenopodium album)
How it was run: as §1

[9] = system: morningglory (Ipomoea coccinea)
How it was run: as §1

[10] = system: pigweed (Amaranthus retroflexus)
How it was run: as §1

[11] = system: surinam grass (Brachiaria decumbens)
How it was run: as §1

wild oat (Avena fatua) = system: wild oat (Avena fatua)
How it was run: as §1

[12] = system: woolly cupgrass (Eriochloa villosa)
How it was run: as §1

[13] = Postemergence, 16 g ai/ha, scale 0 to 100
[14] = Postemergence, 31 g ai/ha, scale 0 to 100
[15] = Postemergence, 62 g ai/ha, scale 0 to 100, 0 no effect, 100 complete control
[16] = Preemergence, 16 g ai/ha, scale 0 to 100 (0 no effect, 100 complete control)
[17] = Preemergence, 31 g ai/ha, 0 to 100 scale, 0 no effect, 100 complete control
[18] = Preemergence, 62 g ai/ha, scale 0 to 100
[19] = 8 g ai/ha, postemergence, 0-100 scale
[20] = Preemergence, 31 g ai/ha, scale 0 to 100 (0 no effect, 100 complete control)
[21] = Preemergence, 8 g ai/ha, scale 0 to 100
[22] = Preemergence, 16 g ai/ha, scale 0 to 100

SMILES: Cc1cc(-c2ccc(Cl)cc2)nn1-c1c(OC(=O)Oc2ccccc2)cnn(C)c1=O [Compound 54]
- Blackgrass plant response rating ([1]; postemergence, 0-100 scale): 45
- Plant response rating, Blackgrass [1, 13]: 45
- Plant response rating, Blackgrass [1, 14]: 70
- Plant response rating, Blackgrass [1, 15]: 70
- Plant response rating, Blackgrass [1, 16]: 90
- Plant response rating, Blackgrass [1, 17]: 90
- Plant response rating, Blackgrass [1, 18]: 90
- Blackgrass plant response rating ([1]; Preemergence, scale 0 to 100): 60
- Plant response rating, Galium ([2]; 62 g ai/ha): 0
- Galium plant response rating ([2]; 8 g ai/ha): 0
- Galium plant response rating ([2]; 16 g ai/ha): 0
- Ragweed plant response rating [3, 19]: 0
- Plant response rating, Ragweed [3, 13]: 0
- Plant response rating, Ragweed [3, 14]: 0
- Plant response rating, Ragweed [3, 15]: 0
- Plant response rating, Ragweed [3, 20]: 0
- Plant response rating, Ragweed [3, 18]: 0
- Ragweed plant response rating [3, 21]: 0
- Ragweed plant response rating [3, 22]: 0
- Corn plant response rating (corn (Zea mays); [19]): 0
- Plant response rating, Corn (corn (Zea mays); [13]): 0
- Plant response rating, Corn (corn (Zea mays); [14]): 25
- Plant response rating, Corn (corn (Zea mays); [15]): 100
- Plant response rating, Corn (corn (Zea mays); [17]): 65
- Plant response rating, Corn (corn (Zea mays); [18]): 85
- Corn plant response rating (corn (Zea mays); [21]): 0
- Corn plant response rating (corn (Zea mays); [22]): 0
- Bromegrass, Downy plant response rating ([4]; postemergence, 0-100 scale): 5
- Plant response rating, Bromegrass, Downy [4, 13]: 50
- Plant response rating, Bromegrass, Downy [4, 14]: 50
- Plant response rating, Bromegrass, Downy [4, 15]: 70
- Plant response rating, Bromegrass, Downy [4, 16]: 0
- Plant response rating, Bromegrass, Downy [4, 17]: 70
- Plant response rating, Bromegrass, Downy [4, 18]: 85
- Bromegrass, Downy plant response rating ([4]; Preemergence, scale 0 to 100): 0
- Foxtail, Giant plant response rating [5, 19]: 85
- Plant response rating, Foxtail, Giant [5, 13]: 98
- Plant response rating, Foxtail, Giant [5, 14]: 100
- Plant response rating, Foxtail, Giant [5, 15]: 100
- Plant response rating, Foxtail, Giant [5, 17]: 20
- Plant response rating, Foxtail, Giant [5, 18]: 55
- Foxtail, Giant plant response rating [5, 21]: 0
- Foxtail, Giant plant response rating [5, 22]: 0
- Goosegrass plant response rating [6, 19]: 55
- Plant response rating, Goosegrass [6, 13]: 65
- Plant response rating, Goosegrass [6, 14]: 70
- Plant response rating, Goosegrass [6, 15]: 98
- Plant response rating, Goosegrass [6, 17]: 0
- Plant response rating, Goosegrass [6, 18]: 0
- Goosegrass plant response rating [6, 21]: 0
- Goosegrass plant response rating [6, 22]: 0
- Foxtail, Green plant response rating [7, 19]: 70
- Plant response rating, Foxtail, Green [7, 13]: 95
- Plant response rating, Foxtail, Green [7, 14]: 95
- Plant response rating, Foxtail, Green [7, 15]: 100
- Plant response rating, Foxtail, Green [7, 17]: 100
- Plant response rating, Foxtail, Green [7, 18]: 100
- Foxtail, Green plant response rating [7, 21]: 55
- Foxtail, Green plant response rating [7, 22]: 95
- Lambsquarters plant response rating [8, 19]: 0
- Plant response rating, Lambsquarters [8, 13]: 0
- Plant response rating, Lambsquarters [8, 14]: 0
- Plant response rating, Lambsquarters [8, 15]: 0
- Plant response rating, Lambsquarters [8, 17]: 0
- Plant response rating, Lambsquarters [8, 18]: 0
- Lambsquarters plant response rating [8, 21]: 0
- Lambsquarters plant response rating [8, 22]: 0
- Morningglory plant response rating [9, 19]: 0
- Plant response rating, Morningglory [9, 13]: 0
- Plant response rating, Morningglory [9, 14]: 0
- Plant response rating, Morningglory [9, 15]: 0
- Plant response rating, Morningglory [9, 20]: 0
- Plant response rating, Morningglory [9, 18]: 0
- Morningglory plant response rating [9, 21]: 0
- Morningglory plant response rating [9, 22]: 0
- Pigweed plant response rating [10, 19]: 0
- Plant response rating, Pigweed [10, 13]: 0
- Plant response rating, Pigweed [10, 14]: 0
- Plant response rating, Pigweed [10, 15]: 0
- Plant response rating, Pigweed [10, 20]: 0
- Plant response rating, Pigweed [10, 18]: 0
- Pigweed plant response rating [10, 21]: 0
- Pigweed plant response rating [10, 22]: 0
- Surinam Grass plant response rating [11, 19]: 50
- Plant response rating, Surinam Grass [11, 13]: 95
- Plant response rating, Surinam Grass [11, 14]: 98
- Plant response rating, Surinam Grass [11, 15]: 100
- Plant response rating, Surinam Grass [11, 20]: 55
- Plant response rating, Surinam Grass ([11]; Preemergence, 62 g ai/ha, 0 to 100 scale, 0 no effect, 100 complete control): 85
- Surinam Grass plant response rating [11, 21]: 0
- Surinam Grass plant response rating [11, 22]: 0
- Oat, Wild plant response rating (wild oat (Avena fatua); [19]): 85
- Plant response rating, Oat, Wild (wild oat (Avena fatua); [13]): 90
- Plant response rating, Oat, Wild (wild oat (Avena fatua); [14]): 98
- Plant response rating, Oat, Wild (wild oat (Avena fatua); [15]): 98
- Plant response rating, Oat, Wild (wild oat (Avena fatua); [20]): 75
- Plant response rating, Oat, Wild (wild oat (Avena fatua); [18]): 95
- Oat, Wild plant response rating (wild oat (Avena fatua); [21]): 40
- Oat, Wild plant response rating (wild oat (Avena fatua); [22]): 70
- Cupgrass, Woolly plant response rating [12, 19]: 80
- Plant response rating, Cupgrass, Woolly [12, 13]: 90
- Plant response rating, Cupgrass, Woolly [12, 14]: 98
- Plant response rating, Cupgrass, Woolly [12, 15]: 100
- Plant response rating, Cupgrass, Woolly [12, 17]: 0
- Plant response rating, Cupgrass, Woolly [12, 18]: 0
- Cupgrass, Woolly plant response rating [12, 21]: 0
- Cupgrass, Woolly plant response rating [12, 22]: 0
